Data taken from patent publication US8852876B2, “Label free biosensors and cells” (Corning Incorporated, priority 2008, dated 2014).

How the values were obtained:
A3 receptor = target: T1, A3 receptor (Rattus norvegicus, UniProt P28647); conditions: read-out: Affinity; cited from earlier work
T1 sequence (P28647 1-320): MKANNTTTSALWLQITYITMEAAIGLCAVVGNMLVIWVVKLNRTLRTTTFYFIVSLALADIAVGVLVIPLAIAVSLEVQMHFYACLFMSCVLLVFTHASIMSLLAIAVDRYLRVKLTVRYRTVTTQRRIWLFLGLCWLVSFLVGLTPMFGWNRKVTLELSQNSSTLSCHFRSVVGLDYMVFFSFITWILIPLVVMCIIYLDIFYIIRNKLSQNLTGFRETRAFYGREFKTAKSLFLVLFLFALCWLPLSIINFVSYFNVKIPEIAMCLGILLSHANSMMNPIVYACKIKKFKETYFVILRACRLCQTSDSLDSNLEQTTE

P2Y receptors = assay: DMR optical biosensor assay, agonist efficacy; format: cell-based, human; conditions: quiescent A431; n=3; read-out: Apparent EC50 (P-DMR amplitude, Gq-type)
[1] = tested on: endogenous GPCRs in A431 cells; assay: DMR optical biosensor profiling of GPCR agonists; format: cell-based, human; conditions: quiescent A431; first class = Gq-type, second = Gs-type, third = Gi-type, fourth = no significant DMR
[2] = tested on: EGF-induced response of quiescent A431 cells; assay: Effect of compound pretreatment on EGF-induced DMR response; format: cell-based, human; conditions: quiescent A431 cells; 32 nM EGF
In short: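 A431 cells were made quiescent by ≥16 h culture in no or ~0.1% FBS medium. After two HBSS/20 mM HEPES pH 7.4 buffer additions ≥15 min apart, compound was added and then stimulus. Real-time dynamic mass redistribution was tracked by resonant waveguide biosensor with angular interrogation.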

[3] = tested on: protease activated receptors PAR1 and PAR2; format: cell-based, human
In short: (§1)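 A431 cells at passage 3-5 grown in DMEM/10% FBS at 37° C, 5% CO2 to ~95% confluency (~2-4 days). Compounds and PAR agonists prepared in 1×HBSS to match the refractive index of the cell medium for dynamic mass redistribution (DMR) read-out.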

[4] = target: T2, protease activated receptors PAR1 and PAR2 (Homo sapiens, UniProt P25116); format: cell-based; conditions: 40 unit/ml thrombin; modulators 10 μM
T2 construct: A431 cells which endogenously express PAR1 and PAR2; endogenous in cells; host or cells: A431
T2 sequence (P25116 22-425): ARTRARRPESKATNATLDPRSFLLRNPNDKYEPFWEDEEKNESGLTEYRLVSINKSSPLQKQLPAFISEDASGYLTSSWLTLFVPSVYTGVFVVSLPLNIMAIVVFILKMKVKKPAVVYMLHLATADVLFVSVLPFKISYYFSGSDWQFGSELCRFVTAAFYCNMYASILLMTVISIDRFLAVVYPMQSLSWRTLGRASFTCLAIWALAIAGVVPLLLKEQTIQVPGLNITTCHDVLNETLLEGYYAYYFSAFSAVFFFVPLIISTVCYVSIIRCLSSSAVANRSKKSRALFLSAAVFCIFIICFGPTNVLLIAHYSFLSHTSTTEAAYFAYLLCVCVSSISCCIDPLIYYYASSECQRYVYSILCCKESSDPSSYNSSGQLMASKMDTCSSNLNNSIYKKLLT
In short: as §1

trypsin = assay: BAEE hydrolysis assay; format: biochemical
adenosine receptors = conditions: read-out: Apparent EC50 (slowly increased P-DMR, Gs-type)
A2A receptor = conditions: read-out: Affinity; cited from earlier work
[5] = target: T3, Bombesin receptor subtype 1 (BRS1) (Homo sapiens, UniProt P28336); assay: Fluo-3 Ca2+ mobilization assay; format: cell-based; conditions: n=5
T3 construct: previously reported to endogenously express in A431 cells; endogenous in cells; host or cells: A431

A431 cells = assay: Cell adhesion and spreading on RWG biosensor; format: cell-based, human; conditions: 100 nM; 5% FBS; room temperature
From the text: The adhesion and spreading of cells at surfaces were well studied using optical imaging techniques, as well as optical biosensors such as SPR and RWG. […] Subsequently, attached cells undergo morphological changes known as spreading—a process that the cells increase their area in contact with the surface. Both attachment and spreading are dependent on the nature of the surface and of the medium in which the cells are suspended. Since cell adhesion and spreading obviously leads to both vertical and horizontal mass redistribution within the sensing volume, we first characterized the adhesion and spreading of A431 cells in 5% FBS in the absence and presence of vincristine. Vincristine is a plant alkaoid that inhibits microtubule assembly by binding to tubulin.
We studied the adhesion and spreading of A431 cells in 5% FBS in the absence and presence of vincristine at room temperature (25° C.). […] Following the addition of cell solution, there is an immediate and rapid increased signal, which is probably resulted from three events: the increased bulk index from the addition of the cell solution, the immobilization of serum proteins onto the sensor surface, and the sedimentation of cells and subsequent contact of cells with the surface. Afterwards, a prolonged increased signal occurred, indicating the slow process of cell spreading. Ultimately a saturated level was reached. […]

β2 adrenergic receptor = target: T4, β2 adrenergic receptor (Homo sapiens, UniProt P07550); assay: DMR optical biosensor assay, agonist efficacy; format: cell-based; conditions: 10 μM pretreatment; 25 nM epinephrine
T4 construct: A431 endogenously expresses high numbers of β2 receptor; endogenous in cells; host or cells: A431

CHO cells = assay: EGF stimulation of CHO cells on optical biosensor (DMR); format: cell-based, Chinese hamster; conditions: CHO cells incubated with EGF
Experimental: (§2) Both A431 and CHO-K1 cells were grown in Dulbecco's modified Eagle's medium (DMEM) supplemented with 10% fetal calf serum, 100 μg/ml penicillin, and 100 μg/ml streptomycin. For cell culture, certain numbers of cells (2×10^5 to 1×10^6), either A431 or CHO-K1, were suspended in […] medium were placed in each well of a 96 well Corning Epic Biosensor microplate, and were cultured at 37° C. in air/5% CO2 for certain time until the cell density reached ˜90% and above (unless specified). The resulted cells were termed as “profilerating” cells. The “quiescent” cells were obtained by culturing the profilerating cells of desired confluencies with a medium containing no or little (˜0.1% fetal bovine serum (FBS)) for at least 16 hours.
The cells, either proliferating or quiescent cells, were either directly used for assays or washed once with the corresponding medium (both result in no obvious difference in cell responses). During the assays, the cells in 100 μl medium were subject to two 25 μl HBSS buffer containing 20 mM HEPES, pH 7.4, each separated by at least 15 minutes before 50 μl stimulus-containing solution was applied. During all these steps, a parallel angular interrogation system was used to monitor the real time kinetics of cellular responses. […]

EGFR = target: T5, EGFR (Homo sapiens, UniProt P00533); assay: EGF-induced DMR response of A431 cells on RWG optical biosensor; format: cell-based; conditions: quiescent A431 cells
T5 construct: endogenously over-expressed EGFRs; endogenous in cells; host or cells: A431 (American Type Cell Culture)
Experimental: as §2
During the assays, the cells in 100 μl medium were subject to two 25 μl HBSS buffer containing 20 mM HEPES, pH 7.4, each separated by at least 15 minutes before 50 μl stimulus-containing solution was applied. […] For compound effect studies, a modified protocol was used which starts with 50 μl medium, and subject to sequential treatment: 25 μl HBSS buffer twice (each separated by at least 15 minutes), 50 μl compound solution and finally 50 μl stimulus-containing solution.

quiescent A431 cells = assay: mβCD-induced response (cholesterol effluxing) on LID sensor; format: cell-based, human; conditions: 20 nM EGF or 1000 nM H7; pretreated at least 40 minutes
From the text: The disclosed methods can be used to assay cholesterol transport and to, for example, screen for molecules that effect cholesterol transport, such as effluxing and uptake. […] This method is based on the measurement in real time of the effect of compounds on cholesterol effluxing. Depletion of cholesterol content on cell surface or intracellular pool results in the disappearance of microvilli located in the cell surface, resulting in the flatness of cells adherent on a surface. The flatness of cells leads to a positive DMR phase with increased signal. Based on this biological effect, we use reagents, as markers, that can either extract cholesterol from the cell surface (e.g., methyl-beta-cyclodextrin (mβCD), or high density lipoproteins (HDLs)), or bind or sequester cholesterol on the cell surface (e.g., saponin at relatively low concentrations). The changes obtained using optical biosensors can be used as an indicator of modulators that interfere with the cholesterol effuxing. FIG. 27 provides a schematic of a cholesterol pathway.

[6] = tested on: protease activated receptors PAR1 and PAR2; assay: Fluo-3 Ca2+ mobilization assay with PAR agonists; format: cell-based, human; conditions: EGF 100 nM; trypsin 100 nM
In short: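 A431 cells (passage 3–5), serum-starved overnight, loaded with 4 μM Fluo-3 for 1 h in HBSS/20 mM HEPES pH 7.0 with 2.5 mM probenecid. PAR agonist added and calcium fluorescence recorded over 6 min at 6 s intervals, room temperature.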

MC receptors = assay: DMR optical biosensor assay, agonist efficacy; format: cell-based, human; conditions: quiescent A431; n=3; read-out: Apparent EC50 (total responses of two P-DMR events)

T3 sequence (P28336 whole entry): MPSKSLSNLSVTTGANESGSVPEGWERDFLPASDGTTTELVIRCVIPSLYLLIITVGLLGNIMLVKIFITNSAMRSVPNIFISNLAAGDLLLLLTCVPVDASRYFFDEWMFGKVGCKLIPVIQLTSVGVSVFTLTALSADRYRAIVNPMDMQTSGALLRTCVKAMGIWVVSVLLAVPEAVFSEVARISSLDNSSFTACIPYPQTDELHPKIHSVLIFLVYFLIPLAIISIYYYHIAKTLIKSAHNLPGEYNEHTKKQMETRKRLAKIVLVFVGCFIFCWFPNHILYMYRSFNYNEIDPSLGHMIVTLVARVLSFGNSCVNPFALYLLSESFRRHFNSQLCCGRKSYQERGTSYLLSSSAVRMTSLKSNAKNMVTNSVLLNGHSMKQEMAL

In the case of `NCCNC(=O)Cc1ccc(NC(=O)Cc2ccc(Nc3ncnc4c3ncn4[C@@H]3O[C@H](CO)[C@@H](O)[C@H]3O)cc2)cc1` [ADAC, adenosine amine cogener], the Ki (A3 receptor) is given as 285 nM.
With `Nc1ncnc2c1ncn2[C@@H]1O[C@H](COP(=O)(O)OP(=O)(O)OP(=O)(O)O)[C@@H](O)[C@H]1O` [ATP] the EC50 (P2Y receptors) was 2200 ± 600 nM and the “Class of optical signature (DMR) induced by agonist” value (from here on “Class of optical signature”) [1] was “first class of optical signatures”.
In the case of `CN([C@@H](Cc1ccc(OS(=O)(=O)c2cccc3cnccc23)cc1)C(=O)N1CCN(c2ccccc2)CC1)S(=O)(=O)c1cccc2cnccc12` [KN 62], the “Effect of pretreatment on 32 nM EGF-induced response” value [2] is reported as “little effect on the response”, the “Effect of pretreatment on trypsin-mediated DMR signal” value ([3]; 100 or 200 nM trypsin, modulators 10 μM) is reported as “almost completely abolished the trypsin-mediated DMR signal” and the “Effect of pretreatment on thrombin-mediated DMR signal” value [4] is reported as “slightly suppressed the thrombin-mediated DMR signal”. For the same molecule, the “Effect on trypsin activity” value (trypsin) was “no any obvious effect on the trypsin activity”.
In the case of `CCNC(=O)[C@H]1O[C@@H](n2cnc3c(N)ncnc32)[C@H](O)[C@@H]1O` [NECA], the EC50 (adenosine receptors) is given as 21.5 ± 1.2 nM, the “Class of optical signature” value [1] is given as “second class of optical signatures” and the Ki (A2A receptor) is given as […].
For `CSCC[C@H](NC(=O)[C@H](CC(C)C)NC(=O)[C@H](Cc1cnc[nH]1)NC(=O)CNC(=O)[C@@H](NC(=O)[C@H](C)NC(=O)[C@H](Cc1c[nH]c2ccccc12)NC(=O)[C@H](CCC(N)=O)NC(=O)[C@H](CC(N)=O)NC(=O)CNC(=O)[C@H](CC(C)C)NC(=O)[C@H](CCCN=C(N)N)NC(=O)[C@H](CCC(N)=O)NC(=O)[C@@H]1CCC(=O)N1)C(C)C)C(N)=O` [bombesin], the “Maximum increase in intracellular Ca2+ level” value [5] was 20±5%.
With `CC[C@]1(O)C[C@H]2CN(CCc3c([nH]c4ccccc34)[C@@](C(=O)OC)(c3cc4c(cc3OC)N(C=O)[C@H]3[C@@](O)(C(=O)OC)[C@H](OC(C)=O)[C@]5(CC)C=CCN6CC[C@]43[C@@H]65)C2)C1` [vincristine] the “Effect on cell adhesion and spreading signatures” value (A431 cells) was “suppressed not only both the initial and total responses, but also reduced the kinetics of cell spreading” and the “Reduction of total change in incident angle vs absence of compound” value (A431 cells) was “about 20%”.
For NKH447, the “Class of optical signature” value [1] was “an optical signature that is similar to those induced by either β2 or A2 agonists” and the “Effect of pretreatment on epinephrine-mediated DMR response” value (β2 adrenergic receptor) was “completely abolished the DMR responses mediated by epinephrine”.
For epidermal growth factor [EGF], the “DMR signals induced by EGF” value (CHO cells) was “no clear P-DMR nor B-DMR signal”, the Kd (EGFR; non-linear regression, read-out: Kd from one-phase decay constant K of the N-DMR signal) was 5.76 nM and the EC50 (EGFR; read-out: EC50 from amplitudes of the N-DMR signals vs EGF concentration) was about 1.45 nM. The “Effect of pretreatment on mβCD-induced response” value (quiescent A431 cells) was “significantly suppressed the mβCD-induced response”, the “Effect of preceding stimulation on DMR responses mediated by trypsin or thrombin” value ([3]; EGF 100 nM, 100 nM trypsin, 40 unit/ml thrombin) was “totally blocked the N-DMR event, but only attenuated the P-DMR event” and the “Effect of preceding stimulation on trypsin-mediated [Ca2+]i elevation” value [6] was “little effect on the [Ca^2+]i elevation mediated by trypsin”.
In the case of “α-melanocyte stimulating hormone [α-MSH]”, the EC50 (MC receptors) is reported as 9 ± 1.6 nM and the “Class of optical signature” value [1] is reported as “third class of optical signatures”.
